ChEMBL document CHEMBL1909046, “DrugMatrix in vitro pharmacology data”

Tests used:
Glucocorticoid receptor = target: T1, Glucocorticoid receptor (Homo sapiens, UniProt P04150); experiment: biochemical
T1 sequence (P04150 whole entry): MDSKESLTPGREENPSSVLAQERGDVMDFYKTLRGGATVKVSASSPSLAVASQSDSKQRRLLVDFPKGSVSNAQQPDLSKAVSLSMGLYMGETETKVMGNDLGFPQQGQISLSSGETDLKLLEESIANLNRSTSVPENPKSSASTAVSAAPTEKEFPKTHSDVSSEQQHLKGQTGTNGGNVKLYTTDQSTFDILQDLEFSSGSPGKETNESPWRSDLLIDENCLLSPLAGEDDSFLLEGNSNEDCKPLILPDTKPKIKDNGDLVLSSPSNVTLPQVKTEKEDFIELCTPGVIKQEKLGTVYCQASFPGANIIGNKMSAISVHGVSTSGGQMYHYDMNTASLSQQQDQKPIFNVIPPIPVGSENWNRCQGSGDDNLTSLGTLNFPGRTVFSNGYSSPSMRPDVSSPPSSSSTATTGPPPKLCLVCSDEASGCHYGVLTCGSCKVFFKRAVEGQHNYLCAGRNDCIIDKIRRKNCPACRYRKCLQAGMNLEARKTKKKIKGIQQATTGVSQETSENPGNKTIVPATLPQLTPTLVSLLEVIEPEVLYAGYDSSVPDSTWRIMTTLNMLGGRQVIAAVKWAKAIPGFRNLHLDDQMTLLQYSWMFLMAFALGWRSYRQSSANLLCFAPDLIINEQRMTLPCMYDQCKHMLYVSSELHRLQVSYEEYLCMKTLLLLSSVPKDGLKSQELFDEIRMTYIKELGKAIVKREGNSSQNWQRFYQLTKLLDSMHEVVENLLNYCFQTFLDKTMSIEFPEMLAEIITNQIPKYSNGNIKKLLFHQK

Cytochrome P450 2C19 = Cytochrome P450 2C19 (Homo sapiens, UniProt P33261)
Cytochrome P450 1A2 = target: T2, Cytochrome P450 1A2 (Homo sapiens, UniProt P05177)
T2 sequence (P05177 whole entry): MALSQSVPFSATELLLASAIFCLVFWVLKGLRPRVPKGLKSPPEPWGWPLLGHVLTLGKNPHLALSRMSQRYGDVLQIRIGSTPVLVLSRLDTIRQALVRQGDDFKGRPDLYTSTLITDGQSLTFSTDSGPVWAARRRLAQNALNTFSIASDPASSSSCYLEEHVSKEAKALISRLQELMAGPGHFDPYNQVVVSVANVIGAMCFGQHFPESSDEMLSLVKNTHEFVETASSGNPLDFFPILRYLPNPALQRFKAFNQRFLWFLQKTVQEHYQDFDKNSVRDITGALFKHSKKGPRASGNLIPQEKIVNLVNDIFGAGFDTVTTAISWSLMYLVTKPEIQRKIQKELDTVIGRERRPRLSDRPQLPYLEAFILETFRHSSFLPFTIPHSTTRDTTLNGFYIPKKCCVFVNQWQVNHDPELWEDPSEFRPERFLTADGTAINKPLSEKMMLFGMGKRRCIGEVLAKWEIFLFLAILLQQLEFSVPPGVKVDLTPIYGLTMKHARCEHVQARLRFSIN

Cytochrome P450 2D6 = Cytochrome P450 2D6 (Homo sapiens, UniProt P10635)
[1] = target: Voltage-gated inwardly rectifying potassium channel KCNH2 (Homo sapiens, UniProt Q12809)
Cytochrome P450 2C9 = Cytochrome P450 2C9 (Homo sapiens, UniProt P11712)
Sequence of Cytochrome P450 2C9 (P11712 whole entry): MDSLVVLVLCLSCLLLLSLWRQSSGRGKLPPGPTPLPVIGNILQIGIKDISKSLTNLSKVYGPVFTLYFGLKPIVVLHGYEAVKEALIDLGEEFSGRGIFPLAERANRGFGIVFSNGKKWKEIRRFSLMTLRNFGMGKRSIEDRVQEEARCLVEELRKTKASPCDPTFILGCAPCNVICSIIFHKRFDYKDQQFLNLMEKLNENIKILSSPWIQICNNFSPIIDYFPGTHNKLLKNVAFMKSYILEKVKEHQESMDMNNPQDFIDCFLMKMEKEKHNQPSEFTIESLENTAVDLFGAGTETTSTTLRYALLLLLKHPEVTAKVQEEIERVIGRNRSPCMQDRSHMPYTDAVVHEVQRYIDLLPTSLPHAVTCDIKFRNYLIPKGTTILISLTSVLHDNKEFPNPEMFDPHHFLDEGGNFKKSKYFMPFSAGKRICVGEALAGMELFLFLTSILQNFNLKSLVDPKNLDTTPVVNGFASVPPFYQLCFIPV

Sequence of Voltage-gated inwardly rectifying potassium channel KCNH2 (Q12809 whole entry): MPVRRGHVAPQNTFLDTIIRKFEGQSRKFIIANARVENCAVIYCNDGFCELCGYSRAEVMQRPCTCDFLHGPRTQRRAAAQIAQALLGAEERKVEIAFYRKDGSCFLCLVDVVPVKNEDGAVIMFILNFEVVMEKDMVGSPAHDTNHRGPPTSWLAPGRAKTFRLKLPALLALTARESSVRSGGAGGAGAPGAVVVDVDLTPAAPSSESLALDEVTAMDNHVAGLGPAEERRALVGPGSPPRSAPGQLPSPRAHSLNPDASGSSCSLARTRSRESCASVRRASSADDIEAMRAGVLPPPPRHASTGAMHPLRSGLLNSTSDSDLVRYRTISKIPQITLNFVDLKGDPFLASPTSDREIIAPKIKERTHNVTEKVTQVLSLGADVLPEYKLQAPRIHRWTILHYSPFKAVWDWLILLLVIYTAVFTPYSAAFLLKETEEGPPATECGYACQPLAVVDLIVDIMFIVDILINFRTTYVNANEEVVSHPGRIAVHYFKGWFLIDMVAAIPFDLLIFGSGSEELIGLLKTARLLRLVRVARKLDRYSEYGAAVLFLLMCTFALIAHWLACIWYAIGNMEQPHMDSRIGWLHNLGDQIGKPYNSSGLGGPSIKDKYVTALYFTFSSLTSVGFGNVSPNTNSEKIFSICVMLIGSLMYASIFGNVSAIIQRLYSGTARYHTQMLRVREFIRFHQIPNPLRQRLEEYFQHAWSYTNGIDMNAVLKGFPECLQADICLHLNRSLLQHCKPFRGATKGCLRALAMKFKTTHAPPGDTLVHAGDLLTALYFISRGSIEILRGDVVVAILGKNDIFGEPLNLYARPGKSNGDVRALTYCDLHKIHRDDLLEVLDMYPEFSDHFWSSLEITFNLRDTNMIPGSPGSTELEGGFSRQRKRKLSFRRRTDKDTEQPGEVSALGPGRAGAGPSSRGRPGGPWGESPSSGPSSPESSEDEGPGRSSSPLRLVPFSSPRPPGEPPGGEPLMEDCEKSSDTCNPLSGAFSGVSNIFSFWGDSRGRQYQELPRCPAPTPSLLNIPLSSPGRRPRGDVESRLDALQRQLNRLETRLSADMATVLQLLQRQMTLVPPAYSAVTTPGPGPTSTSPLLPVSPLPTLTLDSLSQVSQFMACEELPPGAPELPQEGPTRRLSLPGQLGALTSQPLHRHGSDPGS
Sequence of Cytochrome P450 2D6 (P10635 whole entry): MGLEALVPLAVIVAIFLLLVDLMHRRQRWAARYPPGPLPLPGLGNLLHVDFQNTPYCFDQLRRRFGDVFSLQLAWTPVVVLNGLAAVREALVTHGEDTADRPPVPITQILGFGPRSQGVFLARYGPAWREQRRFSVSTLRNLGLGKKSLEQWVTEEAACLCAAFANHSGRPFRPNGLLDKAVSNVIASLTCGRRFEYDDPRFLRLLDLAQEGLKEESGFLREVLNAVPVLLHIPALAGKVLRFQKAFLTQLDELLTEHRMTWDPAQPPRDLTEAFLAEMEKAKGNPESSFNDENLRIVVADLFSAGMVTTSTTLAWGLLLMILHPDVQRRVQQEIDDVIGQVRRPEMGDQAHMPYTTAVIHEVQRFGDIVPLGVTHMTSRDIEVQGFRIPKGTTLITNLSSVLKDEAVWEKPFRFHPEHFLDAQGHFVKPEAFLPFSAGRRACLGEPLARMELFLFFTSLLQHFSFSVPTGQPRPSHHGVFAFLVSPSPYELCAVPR
Sequence of Cytochrome P450 2C19 (P33261 whole entry): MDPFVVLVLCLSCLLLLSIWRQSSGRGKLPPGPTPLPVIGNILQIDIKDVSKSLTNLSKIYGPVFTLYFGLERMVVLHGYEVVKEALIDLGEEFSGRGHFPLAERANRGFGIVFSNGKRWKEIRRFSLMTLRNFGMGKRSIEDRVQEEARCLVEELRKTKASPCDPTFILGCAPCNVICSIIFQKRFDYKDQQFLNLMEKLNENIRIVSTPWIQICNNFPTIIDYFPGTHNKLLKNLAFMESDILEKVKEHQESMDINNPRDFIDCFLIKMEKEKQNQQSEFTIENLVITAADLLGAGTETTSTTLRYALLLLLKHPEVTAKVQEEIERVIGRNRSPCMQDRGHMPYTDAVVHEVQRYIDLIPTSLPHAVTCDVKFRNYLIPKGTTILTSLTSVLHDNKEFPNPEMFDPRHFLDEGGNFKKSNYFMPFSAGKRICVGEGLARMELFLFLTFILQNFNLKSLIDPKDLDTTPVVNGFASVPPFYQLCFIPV

CC(=O)[C@@]1(O)CC[C@H]2[C@@H]3C[C@H](C)C4=CC(=O)CC[C@]4(C)[C@H]3CC[C@@]21C
IC50 (Glucocorticoid receptor): 19 nM
Ki (Glucocorticoid receptor): 8.6 nM
IC50 (Cytochrome P450 2C19): 2000 nM

Cc1oncc1C(=O)Nc1ccc(C(F)(F)F)cc1 [LEFLUNOMIDE]
IC50 (Cytochrome P450 1A2): 500 nM

CN1CCN(CCCN2c3ccccc3Sc3ccc(Cl)cc32)CC1 [PROCHLORPERAZINE]
IC50 (Cytochrome P450 1A2): 2000 nM

Cc1nc2n(c(=O)c1CCN1CCC(c3noc4cc(F)ccc34)CC1)CCCC2 [RISPERIDONE]
IC50 (Cytochrome P450 2D6): 5270 nM

C[C@@H]1CN(c2c(F)c(N)c3c(=O)c(C(=O)O)cn(C4CC4)c3c2F)C[C@H](C)N1 [SPARFLOXACIN]
IC50 [1]: 47.1 µM
Ki [1]: 38.6 µM

CSc1ccc(/C=C2/C(C)=C(CC(=O)O)c3cc(F)ccc32)cc1 [SULINDAC SULFIDE]
IC50 (Cytochrome P450 1A2): 2000 nM

Nc1c2c(nc3ccccc13)CCCC2 [TACRINE]
IC50 (Cytochrome P450 2D6): 300 nM

Cc1cccc(N(C)C(=S)Oc2ccc3ccccc3c2)c1 [TOLNAFTATE]
IC50 (Cytochrome P450 2C19): 3000 nM

CC1(C)O[C@@H]2C[C@H]3[C@@H]4CCC5=CC(=O)C=C[C@]5(C)[C@@]4(F)[C@@H](O)C[C@]3(C)[C@]2(C(=O)CO)O1 [TRIAMCINOLONE ACETONIDE]
IC50 (Glucocorticoid receptor): 4.41 nM
Ki (Glucocorticoid receptor): 2.01 nM

Cc1c(C)c2c(c(C)c1O)CCC(C)(COc1ccc(CC3SC(=O)NC3=O)cc1)O2 (centres undefined) [TROGLITAZONE]
IC50 (Cytochrome P450 2C9): 4 µM
